What is called IC50 is the concentration that gives 50% inhibition. High values mean weaker potency in that assay, low ones greater potency in that assay.

Data on 15 compounds can be found in patent US11813306B2, “Cyclic tetramer compounds as proprotein convertase subtilisin/kexin type 9 (PCSK9) inhibitors for the treatment of metabolic disorders” (NOVARTIS AG, priority 2018, dated 2023).

The assay addresses human PCSK9 (Homo sapiens, UniProt Q8NBP7). Nature of the assay: PCSK9 ligand binding assay (TR-FRET): interference with binding of human PCSK9 to human LDLR. Particulars: for IC50: Human PCSK9 Alexa Fluor 647 / Human LDLR extracellular domain-Europium Kryptate; for Max % inhibition: efficacy (Amax), 100% = 1 uM unlabeled human PCSK9, 0% = DMSO. Put shortly: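 Read-out was TR-FRET ratio (665 nm over 615 nm, 330 nm excitation) between Alexa Fluor 647-human PCSK9 (16 nM added) and Europium Kryptate-human LDLR ectodomain (4 nM added). Compound and PCSK9 were mixed 30 min before LDLR, then incubated 2 h. Inhibition was normalised to DMSO and unlabelled-PCSK9 controls, giving IC50 and Amax.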
Background: TR-FRET usually uses a lanthanide donor and a delayed reading to cut background.

Chain of human PCSK9 (Q8NBP7 153-692): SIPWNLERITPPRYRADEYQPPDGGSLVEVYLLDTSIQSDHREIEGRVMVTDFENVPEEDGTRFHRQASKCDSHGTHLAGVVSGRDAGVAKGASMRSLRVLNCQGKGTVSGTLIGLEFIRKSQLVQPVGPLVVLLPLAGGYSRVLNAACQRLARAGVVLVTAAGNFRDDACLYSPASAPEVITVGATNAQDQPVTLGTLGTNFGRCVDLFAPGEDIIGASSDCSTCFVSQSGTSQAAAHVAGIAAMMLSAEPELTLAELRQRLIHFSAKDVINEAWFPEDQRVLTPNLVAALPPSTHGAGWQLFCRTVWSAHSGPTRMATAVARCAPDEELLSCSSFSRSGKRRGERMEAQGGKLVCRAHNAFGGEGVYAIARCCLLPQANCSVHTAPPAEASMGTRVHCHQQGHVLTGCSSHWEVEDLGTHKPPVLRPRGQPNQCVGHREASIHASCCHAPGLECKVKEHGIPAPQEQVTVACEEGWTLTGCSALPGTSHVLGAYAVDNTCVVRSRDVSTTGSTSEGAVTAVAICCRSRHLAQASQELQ
Chain of human PCSK9 (Q8NBP7 31-152 partner limits assumed): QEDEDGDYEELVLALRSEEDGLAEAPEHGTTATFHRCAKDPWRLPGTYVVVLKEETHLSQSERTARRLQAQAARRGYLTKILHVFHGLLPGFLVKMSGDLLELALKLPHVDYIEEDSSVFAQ

Consider `C[C@H]1C(=O)N[C@@H](CO)C(=O)N[C@@]2(Cc3ccc(Cl)cc3)CCCN(C2)C(=O)[C@H](Cc2ccccc2)CC(=O)N1Cc1cc(F)c(Cl)cc1Oc1ccc(-c2cnc(CN(C)C)n2C)cc1` [Compound 54, (3R, 7S, 10S, 13R)-3-benzyl-6-(4-chloro-2-(4-(2-((dimethylamino)methyl)-1-methyl-1H-imidazol-5-yl)phenoxy)-5-fluorobenzyl)-13-(4-chlorobenzyl)-10-(hydroxymethyl)-7-methyl-1,6,9,12-tetraazabicyclo[11.3.1]heptadecane-2,5,8,11-tetraone], for which the IC50 is 0.624 nM and the Max % inhibition worked out at 109.4%.
In the same order, the values of `C[C@H]1C(=O)N[C@@H](CO)C(=O)N[C@@]2(Cc3ccc(Cl)cc3)CCCN(C2)C(=O)[C@H]([C@@H]2CCc3ccccc32)CC(=O)N1Cc1ccccc1Oc1ccc(-c2cnc(CN(C)C)n2C)cc1` [Compound 55, (3S,7S,10S,13R)-13-(4-chlorobenzyl)-3-((S)-2,3-dihydro-1H-inden-1-yl)-6-(2-(4-(2-((dimethylamino)methyl)-1-methyl-1H-imidazol-5-yl)phenoxy)benzyl)-10-(hydroxymethyl)-7-methyl-1,6,9,12-tetraazabicyclo[11.3.1]heptadecane-2,5,8,11-tetraone] are 0.742 nM and 96.0%.
For the compound `C[C@H]1C(=O)N[C@@H](CO)C(=O)N[C@@]2(Cc3ccc(Cl)cc3)CCCN(C2)C(=O)[C@H](Cc2ccccc2)CC(=O)N1Cc1ccc(Cl)cc1Oc1ccc(-c2nnc(CN(C)C)n2C)cc1` [Compound 56, (3R, 7S, 10S, 13R)-3-benzyl-6-(4-chloro-2-(4-(5-((dimethylamino)methyl)-4-methyl-4H-1,2,4-triazol-3-yl)phenoxy)benzyl)-13-(4-chlorobenzyl)-10-(hydroxymethyl)-7-methyl-1,6,9,12-tetraazabicyclo[11.3.1]heptadecane-2,5,8,11-tetraone], the IC50 came out at 0.425 nM and the Max % inhibition was found to be 101.7%.
As to `COC[C@@H]1NC(=O)[C@H](C)N(Cc2c(F)cc(Cl)cc2Oc2ccc(-c3cnc(CN(C)C)n3C)cc2)C(=O)C[C@@H](Cc2ccccn2)C(=O)N2CCC[C@@](Cc3ccc(Cl)cc3)(C2)N(C)C1=O` [Compound 57, (3R,7S,10S,13R)-6-(4-Chloro-2-(4-(2-((dimethylamino)methyl)-1-methyl-1H-imidazol-5-yl)phenoxy)-6-fluorobenzyl)-13-(4-chlorobenzyl)-10-(methoxymethyl)-7,12-dimethyl-3-(pyridin-2-ylmethyl)-1,6,9,12-tetraazabicyclo[11.3.1]heptadecane-2,5,8,11-tetraone], the IC50 is 0.763 nM and the Max % inhibition was 115.6%.
For the compound `C[C@H]1C(=O)N[C@@H](CO)C(=O)N[C@@]2(Cc3ccc(Cl)cc3)CCCN(C2)C(=O)[C@H](CC(F)F)NC(=O)N1Cc1ccc(Cl)cc1Oc1ccc(-c2cnc(CN(C)C)n2C)cc1.Cl` [Compound 58, (3S, 7S, 10S, 13R)-6-(4-chloro-2-(4-(2-((dimethylamino)methyl)-1-methyl-1H-imidazol-5-yl)phenoxy)benzyl)-13-(4-chlorobenzyl)-3-(2,2-difluoroethyl)-10-(hydroxymethyl)-7-methyl-1,4,6,9,12-pentaazabicyclo[11.3.1]heptadecane-2,5,8,11-tetraone], the IC50 was determined as 0.367 nM and the Max % inhibition came out at 106.6%.
As for `COC[C@@H]1NC(=O)[C@H](C)N(Cc2ccc(Cl)cc2Oc2ccc(-c3cnc(CN4CC[C@H](O)C4)n3C)cc2)C(=O)C[C@@H](Cc2ccccc2)C(=O)N2CCC[C@@](Cc3ccc(Cl)cc3)(C2)NC1=O.Cl` [Compound 59, (3R, 7S, 10S, 13R)-3-benzyl-6-(4-chloro-2-(4-(2-(((S)-3-hydroxypyrrolidin-1-yl)methyl)-1-methyl-1H-imidazol-5-yl)phenoxy)benzyl)-13-(4-chlorobenzyl)-10-(methoxymethyl)-7-methyl-1,6,9,12-tetraazabicyclo+11.3.1+heptadecane-2,5,8,11-tetraone], the IC50 amounted to 0.572 nM and the Max % inhibition is 103.6%.
The matching figures for `COC[C@@H]1NC(=O)[C@H](C)N(Cc2ccc(Cl)cc2Oc2ccc(-c3cnc(CN4CCC(O)CC4)n3C)cc2)C(=O)C[C@@H](Cc2ccccc2)C(=O)N2CCC[C@@](Cc3ccc(Cl)cc3)(C2)NC1=O.Cl` [Compound 61]: 0.623 nM and 109.3%.
On to `C[C@H]1C(=O)N[C@@H](CO)C(=O)N[C@@]2(Cc3ccc(Cl)cc3)CCCN(C2)C(=O)[C@H](Cc2ccc(C(F)(F)F)cc2)CC(=O)N1Cc1ccc(Cl)cc1Oc1ccc(-c2cnc(CN(C)C)n2C)cc1` [Compound 62, (3R, 7S, 10S, 13R)-6-(4-chloro-2-(4-(2-((dimethylamino)methyl)-1-methyl-1H-imidazol-5-yl)phenoxy)benzyl)-13-(4-chlorobenzyl)-10-(hydroxymethyl)-7-methyl-3-(4-(trifluoromethyl)benzyl)-1,6,9,12-tetraazabicyclo[11.3.1]heptadecane-2,5,8,11-tetraone], for which the IC50 turned out to be 0.963 nM and the Max % inhibition was found to be 110.7%.
In the same order, the values of `CC[C@@H]1CC(=O)N(Cc2c(F)cc(Cl)cc2Oc2ccc(-c3cnc(CN(C)C)n3C)cc2)[C@@H](C)C(=O)N[C@@H](COC)C(=O)N[C@@]2(Cc3ccc(Cl)cc3)CCCN(C2)C1=O` [Compound 63] are 0.851 nM and 117.9%.
Turning to `C[C@H](O)[C@@H]1NC(=O)[C@H](C)N(Cc2ccc(Cl)cc2Oc2ccc(-c3cnc(CN(C)C)n3C)cc2)C(=O)C[C@@H](CC(F)(F)F)C(=O)N2CCC[C@@](Cc3ccc(Cl)cc3)(C2)NC1=O` [Compound 64, (3S,7S,10S,13R)-6-(4-chloro-2-(4-(2-((dimethylamino)methyl)-1-methyl-1H-imidazol-5-yl)phenoxy)benzyl)-13-(4-chlorobenzyl)-10-((S)-1-hydroxyethyl)-7-methyl-3-(2,2,2-trifluoroethyl)-1,6,9,12-tetraazabicyclo[11.3.1]heptadecane-2,5,8,11-tetraone], the IC50 is 1.16 nM and the Max % inhibition stood at 99.7%.
On to `COC[C@@H]1NC(=O)[C@H](C)N(Cc2ccc(Cl)cc2Oc2ccc(-c3cnc(CN(C)C)n3C)cc2)C(=O)C[C@@H](Cc2ccccc2)C(=O)N2CCC[C@@](Cc3ccc(Cl)cc3)(C2)N(C)C1=O` [Compound 65, (3R, 7S, 10S, 13R)-3-benzyl-6-(4-chloro-2-(4-(2-((dimethylamino)methyl)-1-methyl-1H-imidazol-5-yl)phenoxy)benzyl)-13-(4-chlorobenzyl)-10-(methoxymethyl)-7,12-dimethyl-1,6,9,12-tetraazabicyclo[11.3.]heptadecane-2,5,8,11-tetraone], for which the concentration for half-maximal inhibition (IC50) came to 0.621 nM and the Max % inhibition stood at 109.2%.
Take `C[C@H]1C(=O)N[C@@H](CO)C(=O)N[C@@]2(Cc3ccc(Cl)cc3)CCCN(C2)C(=O)[C@H](Cc2cccc[n+]2[O-])CC(=O)N1Cc1ccc(Cl)cc1Oc1ccc(-c2cnc(CN(C)C)n2C)cc1` [Compound 66, 2-(((3R,7S,10S,13R)-6-(4-Chloro-2-(4-(2-((dimethylamino)methyl)-1-methyl-1H-imidazol-5-yl)phenoxy)benzyl)-13-(4-chlorobenzyl)-10-(hydroxymethyl)-7-methyl-2,5,8,11-tetraoxo-1,6,9,12-tetraazabicyclo[11.3.1]heptadecan-3-yl)methyl)pyridine 1-oxide]: the half-maximal inhibitory concentration (IC50) worked out at 0.673 nM and the Max % inhibition was 104.2%.
In the same order, the values of `CC(C)[C@@H]1NC(=O)N(Cc2ccc(Cl)cc2Oc2ccc(-c3cnc(CN(C)C)n3C)cc2)[C@@H](C)C(=O)N[C@@H](CO)C(=O)N[C@@]2(Cc3ccc(Cl)cc3)CCCN(C2)C1=O.Cl` [Compound 67, (3S, 7S, 10S, 13R)-6-(4-chloro-2-(4-(2-((dimethylamino)methyl)-1-methyl-1H-imidazol-5-yl)phenoxy)benzyl)-13-(4-chlorobenzyl)-10-(hydroxymethyl)-3-isopropyl-7-methyl-1,4,6,9,12-pentaazabicyclo[11.3.1]heptadecane-2,5,8,11-tetraone] are 0.334 nM and 104.2%.
As for `C[C@H]1C(=O)N[C@@H](CO)C(=O)N[C@@]2(Cc3ccc(Cl)cc3)CCCN(C2)C(=O)[C@H]([C@H]2CCc3ccccc32)CC(=O)N1Cc1ccc(Cl)cc1Oc1ccc(-c2cnc(CN3CCCC3)n2C)cc1.Cl` [Compound 68, (3S,7S,10S,13R)-6-(4-chloro-2-(4-(1-methyl-2-(pyrrolidin-1-ylmethyl)-1H-imidazol-5-yl)phenoxy)benzyl)-13-(4-chlorobenzyl)-3-((R)-2,3-dihydro-1H-inden-1-yl)-10-(hydroxymethyl)-7-methyl-1,6,9,12-tetraazabicyclo[11.3.1]heptadecane-2,5,8,11-tetraone hydrochloride], the IC50 was 1.62 nM and the Max % inhibition was found to be 95.0%.
On to `C[C@H]1C(=O)N[C@@H](CO)C(=O)N[C@@]2(Cc3ccc(Cl)cc3)CCCN(C2)C(=O)[C@H]([C@@H]2CCc3ccccc32)CC(=O)N1Cc1ccc(Cl)cc1Oc1ccc(-c2cnc(C3CN(C)C3)n2C)cc1` [Compound 69, (3S, 7S, 10S, 13R)-6-(4-chloro-2-(4-(1-methyl-2-(1-methylazetidin-3-yl)-1H-imidazol-5-yl)phenoxy)benzyl)-13-(4-chlorobenzyl)-3-((S)-2,3-dihydro-1H-inden-1-yl)-10-(hydroxymethyl)-7-methyl-1,6,9,12-tetraazabicyclo[11.3.1]heptadecane-2,5,8,11-tetraone], for which the half-maximal inhibitory concentration (IC50) is 0.781 nM and the Max % inhibition came to 70.1%.
